In US20250388542A1, “ANALOGUES OF PENTAMIDINE AND USES THEREFOR” (Auransa Inc., priority 2018, published 2025):

How the values were obtained:
[1] = Pharmacokinetics in liver and tissues after oral administration; format: in vivo, mice
Description: Compound 1 (20 mg per kg), Compound 5 (10 mg per kg), and pentamidine (20 mg per kg) were tested for their PK. Tissue samples were collected as described above in Example 23. Briefly, blood samples (approximately […]) were collected under light isoflurane anesthesia from retro orbital plexus of mice at 0.5, 1, 3, 8, 48 and 72 hr. Plasma samples were separated by centrifugation at 2,000×g for 6 minutes and stored below −70±10° C. until bioanalysis. Immediately after collection of blood, animals were euthanized using excess CO2 asphyxiation and samples were collected from set of five mice at each time point. Collected tissue samples were immediately dipped and rinsed three times in ice cold PBS (for 5-10 seconds/rinse using ˜5-10 mL fresh PBS in disposable petri dish for each rinse) and dried on blotting paper. Tissue samples were homogenized using ice-cold phosphate buffer saline (pH7.4) and homogenates were stored below −70±10° C. until analysis. Total homogenate volume was three times the tissue weight except for liver samples, total homogenate volume was ten times the liver weight. Bioanalysis process was determined by fit-for-purpose LC-MS/MS method.
Calibration standards were prepared by spiking the test compound into blank plasma. 10 μL of working calibration standard was spiked into 190 μL of blank Mice Plasma or tissue homogenate to generate linearly spiked calibration standards. Calibrator concentrations were 5,000, 2,000, 1,000, 200, 100, 20, 10, 2 and 1 ng/mL. Calibration standard samples were processed along with the test samples. Twenty-five μL aliquots of plasma or tissue homogenate test samples were treated with 100 μL of acetonitrile containing internal standard (500 ng/mL Glipizide). Samples were vortexed for 5 minutes. Samples were centrifuged for 10 minutes at a speed of 4000 rpm at 4° C. Following centrifugation, 100 μL of clear supernatant was transferred in 96-well plates of and analyzed using LC-MS/MS. Chromatographic separation was achieved using a Kintex Polar column (C18, 100×4.6 mm, 5μ) and column oven temperature 45° C. For compound 1 diHCl the mobile phase A was water with 0.1% formic acid in Acetonitrile; mobile phase B was 10 mM ammonium formate. However, the mobile phase for pentamidine and Compound 5 mobile phase A was water with 0.1% formic acid and mobile phase B acetonitrile with 0.1% formic acid.
The gradient program for Compound 1 was as follows: 5% B (1-2.40 min), 90% B (2.60-3.00 min), and the initial for B was 90%. The retention rate was 1.47 per minute and the internal standard Glipizide was 1 per 9 minutes. The column was maintained at 45° C. For pentamidine and Compound 5, analysis was performed using 233 MassSpec by AB Sciex API5000 with Turbo Ion Spray interface operating in a positive ionization mode. Quantification was performed using multiple reaction monitoring (MRM) method with the transitions of (m/z) 328 à (m/z) 311 for Compound 5 and (m/z) 548 à (m/z) 366 for Edoxaban (internal standard). While, for pentamidine (m/z) 341 à (m/z) 324 and (m/z) 548 à (m/z) 366 for Verapmil (internal standard).
The gradient program for Compound 5 was as follows: 10% B (0-0.2 min), 95% B (1.5-2 min), the initial for B was 10% and it stopped at 2.6 mins. The flow rate was 0.5 mL/min. The gradient program for pentamidine was as follows: 10% B (0-0.2 min), 95% B (1.4-2 min), the initial for B was 10% and it stopped at 2.5 mins. The flow rate was 0.5 mL/min.

Hep3B-luc = assay: CellTiter-Glo cell viability, liver cell lines, 8 days; format: cell-based; conditions: Hep 3B-Luc, 192 h, full growth media
Description: The objective of this study is to investigate the effect of Compound 1 on cell viability of various types of liver cancer. Ten (10) different liver cancer cell lines were employed in the study. Each liver cell line shown in Table 4 was treated with Compound 1, pentamidine, as reference control, a standard of care (cisplatin) and culture medium contains 0.2% [v/v] DMSO vehicle control and IC50 values were obtained as described above. The raw data values from the CellTiter-Glo™ cell viability assay expressed in relative luminescence units were normalized to the vehicle for each individual plate, and any reduction in luminescence indicated a decrease in viability (%). The data was analyzed in GraphPad PRISM using a non-linear sigmoidal plot with variable slope (asymmetric four-point linear regression), and an IC50 value for each compound was generated. The experiment tested pentamidine, compound 1, and standard-of-care control Cisplatin in full growth media for 8 days. Cells were initially treated with the test compounds on Day 0, and the cells were then replenished with fresh compound dilutions on Day 3. Pentamidine, Compound 1, and cisplatin were tested at 9 concentration points; 100, 33.33, 11.11, 3.70, 1.23, 0.41, 0.14, 0.05, and 0.02 μM (final DMSO concentration=0.5%). In particular, the IC50 values of pentamidine and Compound 1 were 0.8 and 0.6 μM in Hep3B-luc, respectively.
The experiment tested pentamidine, Compound 1, and standard of care control, cisplatin, in full growth media for 8 days. Hep-3b cells were initially treated with the test compounds on Day 0, and the cells were then replenished with fresh compound dilutions on Day 3. […] The raw data values from the CellTiter-Glo™ cell viability assay expressed in relative luminescence units were normalized to the vehicle for each individual plate, and any reduction in luminescence indicated a decrease in viability (%). The data was analyzed in GraphPad PRISM using a non-linear sigmoidal plot with variable slope (asymmetric four-point linear regression), and an IC50 value for each compound was generated. […]

## N=C(N)c1ccc(OCCCCCOc2ccc(C(=N)N)nc2)cc1 [Compound 1, 5-(5-(4-carbamimidoylphenoxy)pentyloxy)picolinimidamide]
[1]; 20 mpk p.o. both
  Cmax normalized to dose, liver, relative to pentamidine: ~7 folds
[1]; Compound 1 20 mpk, Compound 5 10 mpk, p.o.
  exposure to the liver vs pentamidine (20 mpk): greater exposure to the liver than pentamidine
[1]; liver, p.o.
  half-life vs pentamidine: higher half-life than pentamidine
[1]; liver, small intestine, ileum, p.o.
  tissue exposure: increased exposure in the liver as well as small intestine and ileum
[1]; plasma vs other tissues, p.o.
  exposure to the plasma: low in comparison to other tissues
Hep3B-luc
  IC50: 600 nM
